Laboratory results reported in patent publication US20180207228A1, “PEPTIDE COMBINATIONS AND USES THEREOF FOR TREATING GRASS ALLERGY” (ALK-Abelló A/S, priority 2015, published 2018).
Where no end group is shown, it is not given here.

What was measured:
Type in all cases: cell-based, human
[1] = system: allergen specific T cells; experiment: T cell proliferation assay (72 h) on donor derived T cell lines (TCL02/TCL03); conditions: for Proliferation % donor coverage (TCL-02 DK1): T cell lines TCL-02 DK1, 30 donors, hit criteria SI>=2, CPM>=1000; for Proliferation strength (TCL-02 DK1): T cell lines TCL-02 DK1, strength of response (average relative magnitude)
Procedure, shortened: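 CD8-depleted PBMCs from grass-allergic donors stimulated with natural grass allergen mix (nPhl p 1 0.5 μg/ml) to raise T cell lines; restimulated with irradiated APCs, allergens or PHA-P (0.5 μg/ml) plus rIL-2. Proliferation to overlapping 20-mer and selected 15-mer grass peptides tested with TCL02 (day 24) or TCL03 (day 34).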

[2] = system: release of IL-5 upon T cell activation; experiment: Fluorospot assay, IL-5 release (DK1-TCL01, US1-TCL01); conditions: head prints TCL-02 DK1; text: 25 TCL-01 DK1 lines
Procedure, shortened: (§1)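 Grass-allergic donors' CD8-depleted PBMCs were expanded 14 days with natural grass allergens plus IL-2 to give TCL01 lines. These were incubated 20 h at 37° C with single peptides or peptide mixes at 2 μg/ml, and spot-forming cells were counted. Hit: SI≥2, p≤0.05, Poisson ≤0.05, ≥20 SFC/10^6 cells.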

[3] = system: release of IFN-γ upon T cell activation; experiment: Fluorospot assay, IFN-γ release (DK1-TCL01, US1-TCL01); conditions: head prints TCL-02 DK1; 17 TCL-01 DK1 lines
Procedure, shortened: as §1

Row | Compound | Proliferation % donor coverage (TCL-02 DK1) [1] [%] | Proliferation strength (TCL-02 DK1) [1] | IL-5-Fluorospotr % donor coverage (TCL-02 DK1) [2] [%] | IFN-gamma % donor coverage (TCL-02 DK1) [3] [%]
1 | LVKYVNGDGDVVAVDIKEKG-OH [compound 9] | 26.67 | 1.60 | 20.00 | 8.00
2 | GSDPKKLVLNIKYTRPGDSL-OH [compound 36] | 53.33 | 11.90 | 24.00 | 8.00
3 | AGYTPAAPAGAEPAGKATTE-OH [compound 61] | 26.67 | 3.40 | 16.00 | 0.00
4 | DKYRTFVATFGAASNKAFAE-OH [compound 64] | 36.67 | 6.00 | 16.00 | 0.00
5 | VVAVDIKEKGKDKWIELKES-OH [compound 25] | 20.00 | 1.10 | 4.00 | 8.00
6 | TPFPHRKGVLFNIQYVNYWF-OH [compound 50] | 43.33 | 6.70 | 28.00 | 8.00
7 | GRRHSVRIRVRSGGHDYEGL-OH [compound 51] | 10.00 | 0.40 | 0.00 | 0.00
8 | IPKVPPGPNITATYGDKWLD-OH [compound 14] | 3.33 | 0.40 | 0.00 | 0.00
9 | KSSKPLVGPFNFRFMSKGGM-OH [compound 39] | 13.33 | 1.10 | 12.00 | 4.00
10 | KPPFSGMTGSGNTPI-OH [compound 122] | 10.34 | 0.60 | 4.17 | 0.00
11 | YHFDLSGHAFGAMAKKGDEQ-OH [compound 5] | 46.67 | 7.80 | 24.00 | 15.00
12 | FAVVDLNKMRAVWVDGKART-OH [compound 47] | 40.00 | 6.20 | 0.00 | 8.00
13 | AEGLSGEPKGAAESSSKAAL-OH [compound 77] | 3.33 | 0.40 | 0.00 | 0.00
14 | DGKARTAWVDSGAQLGELYY-OH [compound 54] | 26.67 | 4.20 | 4.00 | 4.00
15 | YLALLVKYAAGDGNIVAVDI-OH [compound 105] | 16.67 | 1.90 | 12.00 | 4.00
16 | EPIFKDGLGSRASYEIKSKE-OH [compound 95] | 20.00 | 2.20 | 0.00 | 4.00
17 | AAESSSKAALTSKLDAAYKL-OH [compound 78] | 16.67 | 3.00 | 0.00 | 0.00
18 | AAGVPPADKYRTFVATFGAA-OH [compound 75] | 10.00 | 1.10 | 0.00 | 0.00
19 | VKYEGDTMAEVELREHGSDE-OH [compound 32] | 6.67 | 0.20 | 0.00 | 0.00

Row | Compound | Proliferation % donor coverage (TCL-02 DK1) [1] [%] | Proliferation strength (TCL-02 DK1) [1] | IL-5-Fluorospotr % donor coverage (TCL-02 DK1) [2] [%] | IFN-gamma % donor coverage (TCL-02 DK1) [3] [%]
20 | TPDKLTGPFTVRYTTEGGTK-OH [compound 26] | 13.33 | 2.00 | 24.00 | 4.00
21 | GRGSGSSFEIKSTKPEASSG-OH [compound 2] | 26.67 | 3.10 | 12.00 | 4.00
22 | TSKLDAAYKLAYKTAEGATP-OH [compound 65] | 30.00 | 5.70 | 4.00 | 4.00
23 | ASGYKDVDKPPFDGMTASGN-OH [compound 93] | 16.67 | 2.40 | 0.00 | 0.00
24 | IKYTRPGDSLAEVELRQHGS-OH [compound 42] | 16.67 | 0.80 | 0.00 | 0.00
25 | EWVAMTKGEGGVWTFDSEEP-OH [compound 27] | 13.33 | 2.30 | 8.00 | 4.00
26 | VFDDVVPEKYTIGATYAPEE-OH [compound 35] | 13.33 | 0.70 | 0.00 | 0.00
27 | KVPPGPNITATYGDKWLDAK-OH [compound 15] | 3.33 | 0.50 | 0.00 | 0.00
28 | EGTKVTFHVEKGSNPNYLAL-OH [compound 24] | 36.67 | 7.40 | 16.00 | 4.00
29 | EAKYDAYVATLSEALRIIAG-OH [compound 66] | 46.67 | 11.20 | 20.83 | 0.00
30 | AGELELQFRRVKSKYPEGTK-OH [compound 7] | 40.00 | 8.10 | 28.00 | 4.00
31 | CC(C)[C@H](NC(=O)[C@H](C)NC(=O)[C@H](C)NC(=O)[C@H](CCCCN)NC(=O)[C@@H](N)Cc1ccccc1)C(=O)N[C@@H](C)C(=O)N[C@@H](C)C(=O)N[C@@H](C)C(=O)N[C@@H](C)C(=O)NCC(=O)N[C@@H](C)C(=O)N1CCC[C@H]1C(=O)N1CCC[C@H]1C(=O)N[C@@H](C)C(=O)N[C@@H](CC(=O)O)C(=O)O [compound 133] | 31.03 | 4.70 | 21.74 | 0.00
32 | GSNEKHLAVLVKYEGDTMAE-OH [compound 31] | 10.00 | 1.40 | 0.00 | 0.00
33 | AMSEAQKAAKPAAAATATAT-OH [compound 86] | 10.00 | 1.40 | 0.00 | 0.00
34 | TDDNEEPIAPYHFDLSGHAF-OH [compound 4] | 40.00 | 6.40 | 28.00 | 4.00
35 | CC[C@H](C)[C@H](NC(=O)[C@@H](NC(=O)[C@H](CCCNC(=N)N)NC(=O)[C@H](CC(C)C)NC(=O)[C@H](C)NC(=O)[C@H](CCC(=O)O)NC(=O)[C@@H](NC(=O)[C@H](CC(C)C)NC(=O)[C@@H](NC(=O)[C@H](C)NC(=O)[C@@H](NC(=O)[C@H](Cc1ccc(O)cc1)NC(=O)[C@H](C)NC(=O)[C@@H](N)CC(=O)O)C(C)C)[C@@H](C)O)[C@@H](C)O)C(C)C)C(=O)N[C@@H](C)C(=O)O [compound 128] | 60.00 | 13.50 | 41.67 | 12.00
36 | HGSEEWEPLTKKGNVWEVKS-OH [compound 37] | 26.67 | 3.20 | 4.00 | 0.00
37 | RGAAPDDHGGASGYKDVDKP-OH [compound 92] | 3.33 | 0.60 | 0.00 | 0.00
